Reference: ChEMBL document CHEMBL1201862, “PubChem BioAssay data set” (2004)
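Briefly, cells in 96-well plates were exposed to five compound concentrations for 48 h, and endpoints were estimated by linear interpolation. GI50 is the concentration that inhibits growth by half.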 Calls of active or inactive are those of the source. Cut-off read from the data, not from the text of the source: active = GI50 up to about 1.1 µM and inactive = higher.

Legend:
Assay in all cases: inhibition of tumour cell growth, NCI panel, 48 h
HL-60 = system: HL-60
HCT-15 = system: HCT-15
MOLT-4 = system: MOLT-4
IGROV-1 = system: IGROV-1
CAKI-1 = system: CAKI-1
SF-295 = system: SF-295
UO-31 = system: UO-31
RPMI-8226 = system: RPMI-8226
NCI-H522 = system: NCI-H522
NCI-H226 = system: NCI-H226
SN12C = system: SN12C
SK-MEL-28 = system: SK-MEL-28
OVCAR-8 = system: OVCAR-8
EKVX = system: EKVX
SF-268 = system: SF-268
UACC-62 = system: UACC-62
COLO 205 = system: COLO 205
HCC 2998 = system: HCC 2998
NCI-H460 = system: NCI-H460
SK-MEL-5 = system: SK-MEL-5

SMILES	GI50 (HL-60)	GI50 (HCT-15)	GI50 (MOLT-4)	GI50 (IGROV-1)	GI50 (CAKI-1)	GI50 (SF-295)	GI50 (UO-31)	GI50 (RPMI-8226)	GI50 (NCI-H522)	GI50 (NCI-H226)	GI50 (SN12C)	GI50 (SK-MEL-28)	GI50 (OVCAR-8)	GI50 (EKVX)	GI50 (SF-268)	GI50 (UACC-62)	GI50 (COLO 205)	GI50 (HCC 2998)	GI50 (NCI-H460)	GI50 (SK-MEL-5)
O=C(CCC1OCCO1)Nc1cc(NCc2ccccc2)ccc1OCc1ccccc1	38.5 µM (inactive)	35.1 µM	20.5 µM (inactive)	41.6 µM (inactive)	20.7 µM (inactive)	30.2 µM (inactive)	33.9 µM (inactive)	20.1 µM (inactive)	23.7 µM (inactive)	38.4 µM (inactive)	46.8 µM (inactive)	64.7 µM (inactive)	18.9 µM (inactive)	21.2 µM (inactive)	63.8 µM (inactive)	28.1 µM (inactive)	22.3 µM (inactive)	33 µM (inactive)	39.1 µM (inactive)	18.4 µM (inactive)
Cc1cccc(C)c1NC(=O)/C(Cc1nc2ccc([N+](=O)[O-])cc2nc1O)=N\NC(N)=O	32.5 µM (inactive)	> 100 µM	31.6 µM (inactive)	89.3 µM (inactive)	> 100 µM (inactive)	> 100 µM (inactive)	45.3 µM (inactive)	37.9 µM (inactive)	31.6 µM (inactive)	> 100 µM (inactive)	> 100 µM (inactive)	> 100 µM (inactive)	> 100 µM (inactive)	64.6 µM (inactive)	> 100 µM (inactive)	80.9 µM (inactive)	38.9 µM (inactive)	> 100 µM (inactive)	> 100 µM (inactive)	> 100 µM (inactive)
COC(=O)/C(=N/NC(C)(C)C)C(C(=O)OC)C(=O)C(=O)Nc1nc2ccc([N+](=O)[O-])cc2s1 (stereo not given)	> 100 µM (inactive)	> 100 µM	> 100 µM (inactive)	> 100 µM (inactive)	> 100 µM (inactive)	> 100 µM (inactive)	> 100 µM (inactive)	> 100 µM (inactive)	> 100 µM (inactive)	> 100 µM (inactive)	> 100 µM (inactive)	> 100 µM (inactive)	> 100 µM (inactive)	> 100 µM (inactive)	> 100 µM (inactive)	> 100 µM (inactive)	> 100 µM (inactive)	> 100 µM (inactive)	> 100 µM (inactive)	> 100 µM (inactive)
Cc1c(N)nc(C(CC(N)=O)NCC(N)C(N)=O)nc1C(=O)NC(C(=O)NC(C)C(O)C(C)C(=O)NC(C(=O)NCCc1nc(-c2nc(C(=O)NCCCNCCCCN)cs2)cs1)C(C)O)C(OC1OC(CO)C(O)C(O)C1OC1OC(CO)C(O)C(OC(N)=O)C1O)c1c[nH]cn1 (stereo not given)	> 10 µM (inactive)	> 5.64 µM	2.94 µM (inactive)	> 10 µM (inactive)	0.00178 µM (active)	0.0731 µM (active)	2.36 µM (inactive)	> 10 µM (inactive)	2.1 µM (inactive)	0.233 µM (active)	3.56 µM (inactive)	> 10 µM (inactive)	> 10 µM (inactive)	> 10 µM (inactive)	1.18 µM (inactive)	2.71 µM (inactive)	> 10 µM (inactive)	> 10 µM (inactive)	0.143 µM (active)	2.43 µM (inactive)
Cn1cnc(N2CCCC2)c(C#N)c1=S	> 100 µM (inactive)	> 100 µM	> 100 µM (inactive)	> 100 µM (inactive)	35.9 µM (inactive)	> 100 µM (inactive)	23.2 µM (inactive)	> 100 µM (inactive)	> 100 µM (inactive)	> 100 µM (inactive)	> 100 µM (inactive)	> 100 µM (inactive)	> 100 µM (inactive)	94.4 µM (inactive)	> 100 µM (inactive)	> 100 µM (inactive)	> 100 µM (inactive)	> 100 µM (inactive)	> 100 µM (inactive)	> 100 µM (inactive)
